Test results published in PubChem BioAssay (NCI).
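Values below derive from 48-hour exposures of cells grown in 96-well plates, with endpoints linearly interpolated between the two concentrations bracketing the appropriate inhibition level. GI50 = concentration required for 50% inhibition of growth. The concentration for full growth arrest is given as TGI.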

How the values were obtained:
Assay in all cases: DTP human tumour cell line panel, 48 h
SK-MEL-5 melanoma = system: SK-MEL-5 melanoma
T-47D breast = system: T-47D breast
UO-31 renal = system: UO-31 renal
EKVX NSCLC = system: EKVX NSCLC
SR leukemia = system: SR leukemia
RXF 393 renal = system: RXF 393 renal
A549 NSCLC = system: A549 NSCLC
OVCAR-8 ovarian = system: OVCAR-8 ovarian
HCT-116 colon = system: HCT-116 colon
MDA-MB-231 breast = system: MDA-MB-231 breast
SK-MEL-28 melanoma = system: SK-MEL-28 melanoma
LOX IMVI melanoma = system: LOX IMVI melanoma
MOLT-4 leukemia = system: MOLT-4 leukemia
OVCAR-3 ovarian = system: OVCAR-3 ovarian
COLO 205 colon = system: COLO 205 colon
SF-268 CNS = system: SF-268 CNS
HL-60(TB) leukemia = system: HL-60(TB) leukemia
HCC-2998 colon = system: HCC-2998 colon
HT29 colon = system: HT29 colon
CAKI-1 renal = system: CAKI-1 renal
MCF7 breast = system: MCF7 breast
OVCAR-5 ovarian = system: OVCAR-5 ovarian
NCI-H226 lung = system: NCI-H226 lung
SNB-75 CNS = system: SNB-75 CNS
NCI/ADR-RES ovarian = system: NCI/ADR-RES ovarian
TK-10 renal = system: TK-10 renal
SK-MEL-2 melanoma = system: SK-MEL-2 melanoma
MDA-MB-435 = system: MDA-MB-435
RPMI-8226 leukemia = system: RPMI-8226 leukemia
786-0 renal = system: 786-0 renal
PC-3 prostate = system: PC-3 prostate
SNB-19 CNS = system: SNB-19 CNS
NCI-H460 lung = system: NCI-H460 lung
NCI-H23 lung = system: NCI-H23 lung
HOP-92 NSCLC = system: HOP-92 NSCLC
HOP-62 NSCLC = system: HOP-62 NSCLC
M14 melanoma = system: M14 melanoma
A498 renal = system: A498 renal
HCT-15 colon = system: HCT-15 colon
CCRF-CEM leukemia = system: CCRF-CEM leukemia
IGROV1 ovarian = system: IGROV1 ovarian
SF-295 CNS = system: SF-295 CNS
SF-539 CNS = system: SF-539 CNS
DU-145 prostate = system: DU-145 prostate
UACC-257 melanoma = system: UACC-257 melanoma
SN12C renal = system: SN12C renal
HS 578T breast = system: HS 578T breast
SK-OV-3 ovarian = system: SK-OV-3 ovarian
BT-549 breast = system: BT-549 breast
K-562 leukemia = system: K-562 leukemia
SW-620 colon = system: SW-620 colon
KM12 colon = system: KM12 colon
OVCAR-4 ovarian = system: OVCAR-4 ovarian
NCI-H522 lung = system: NCI-H522 lung
MALME-3M melanoma = system: MALME-3M melanoma
U251 CNS = system: U251 CNS
ACHN renal = system: ACHN renal
UACC-62 melanoma = system: UACC-62 melanoma

## CC(C)Oc1ccc(-c2nn([C@@H](C)c3oc4ccc(F)cc4c(=O)c3-c3cccc(F)c3)c3ncnc(N)c23)cc1F
SK-MEL-5 melanoma
  GI50: 48.9 µM
  TGI: > 100 µM
T-47D breast
  GI50: 5.42 µM
  TGI: > 100 µM
UO-31 renal
  GI50: 3.81 µM
  TGI: > 100 µM
EKVX NSCLC
  GI50: 8.61 µM
  TGI: > 100 µM
SR leukemia
  GI50: 4.93 µM
  TGI: > 100 µM
RXF 393 renal
  GI50: 4.36 µM
  TGI: > 100 µM
A549 NSCLC
  GI50: 7.7 µM
  TGI: > 100 µM
OVCAR-8 ovarian
  GI50: 11.8 µM
  TGI: > 100 µM
HCT-116 colon
  GI50: 8.96 µM
  TGI: > 100 µM
MDA-MB-231 breast
  GI50: 22.9 µM
  TGI: > 100 µM
SK-MEL-28 melanoma
  GI50: > 100 µM
  TGI: > 100 µM
LOX IMVI melanoma
  GI50: > 100 µM
  TGI: > 100 µM
MOLT-4 leukemia
  GI50: 9.28 µM
  TGI: > 100 µM
OVCAR-3 ovarian
  GI50: 30.2 µM
  TGI: > 100 µM
COLO 205 colon
  GI50: 67.3 µM
  TGI: > 100 µM
SF-268 CNS
  GI50: 19.1 µM
  TGI: > 100 µM
HL-60(TB) leukemia
  GI50: 30.4 µM
  TGI: > 100 µM
HCC-2998 colon
  GI50: > 100 µM
  TGI: > 100 µM
HT29 colon
  GI50: 21.8 µM
  TGI: > 100 µM
CAKI-1 renal
  GI50: 5.6 µM
  TGI: > 100 µM
MCF7 breast
  GI50: 6.79 µM
  TGI: > 100 µM
OVCAR-5 ovarian
  GI50: > 100 µM
  TGI: > 100 µM
NCI-H226 lung
  GI50: 26.9 µM
  TGI: > 100 µM
SNB-75 CNS
  GI50: > 100 µM
  TGI: > 100 µM
NCI/ADR-RES ovarian
  GI50: 20.7 µM
  TGI: > 100 µM
TK-10 renal
  GI50: 7.29 µM
  TGI: > 100 µM
SK-MEL-2 melanoma
  GI50: > 100 µM
  TGI: > 100 µM
MDA-MB-435
  GI50: > 100 µM
  TGI: > 100 µM
RPMI-8226 leukemia
  GI50: 6.7 µM
  TGI: > 100 µM
786-0 renal
  GI50: 12.8 µM
  TGI: > 100 µM
PC-3 prostate
  GI50: 4.68 µM
  TGI: > 100 µM
SNB-19 CNS
  GI50: 32.5 µM
  TGI: > 100 µM
NCI-H460 lung
  GI50: 17.6 µM
  TGI: > 100 µM
NCI-H23 lung
  GI50: 60.9 µM
  TGI: > 100 µM
HOP-92 NSCLC
  GI50: 4.71 µM
  TGI: > 100 µM
HOP-62 NSCLC
  GI50: > 100 µM
  TGI: > 100 µM
M14 melanoma
  GI50: > 100 µM
  TGI: > 100 µM
A498 renal
  GI50: 76.1 µM
  TGI: > 100 µM
HCT-15 colon
  GI50: 9.33 µM
  TGI: > 100 µM
CCRF-CEM leukemia
  GI50: 6.17 µM
  TGI: > 100 µM
IGROV1 ovarian
  GI50: > 100 µM
  TGI: > 100 µM
SF-295 CNS
  GI50: > 100 µM
  TGI: > 100 µM
SF-539 CNS
  GI50: 15.2 µM
  TGI: > 100 µM
DU-145 prostate
  GI50: > 100 µM
  TGI: > 100 µM
UACC-257 melanoma
  GI50: > 100 µM
  TGI: > 100 µM
SN12C renal
  GI50: 9.89 µM
  TGI: > 100 µM
HS 578T breast
  GI50: 47.5 µM
  TGI: > 100 µM
SK-OV-3 ovarian
  GI50: > 100 µM
  TGI: > 100 µM
BT-549 breast
  GI50: 6.99 µM
  TGI: > 100 µM
K-562 leukemia
  GI50: 5.68 µM
  TGI: > 100 µM
SW-620 colon
  GI50: > 100 µM
  TGI: > 100 µM
KM12 colon
  GI50: 25.8 µM
  TGI: > 100 µM
OVCAR-4 ovarian
  GI50: > 100 µM
  TGI: > 100 µM
NCI-H522 lung
  GI50: > 100 µM
  TGI: > 100 µM
MALME-3M melanoma
  GI50: > 100 µM
  TGI: > 100 µM
U251 CNS
  GI50: 23.9 µM
  TGI: > 100 µM
ACHN renal
  GI50: 50.1 µM
  TGI: > 100 µM
UACC-62 melanoma
  GI50: > 100 µM
  TGI: > 100 µM
